Assay [1] relates to NS5A chimeric genotype 2a JFH-1 replicon with genotype 2b MD2b-1 strain NS5A gene (M31 present). Nature of the assay: Replicon assay, genotype 2b NS5A chimera. The assay is classed as cell-based, HCV. Particulars: Hepatitis C virus. As to the method: (§1) Evaluation of Cell-Based Anti-HCV Activity:
(§2) Antiviral potency (EC50) was determined using a Renilla luciferase (RLuc)-based HCV replicon reporter assay. To perform the assay for genotype 1 and 2a JFH-1, stable HCV 1a RLuc replicon cells (harboring a dicistronic genotype 1a H77 replicon that encodes a RLuc reporter), stable HCV 1b RLuc replicon cells (harboring a dicistronic genotype 1b Con1 replicon that encodes a RLuc reporter), or stable HCV 2a JFH-1 Rluc replicon cells (harboring a dicistronic genotype 2a JFH-1 replicon that encodes a RLuc reporter; with L31 present in NS5A) were dispensed into 384-well plates for EC50 assays. To perform the assay for genotype 2a (with M31 present in NS5A) or 2b, NS5A chimeric genotype 2a JFH-1 replicons that encodes a RLuc-Neo reporter and either genotype 2a J6 strain NS5A gene or genotype 2b MD2b-1 strain NS5A gene (both with M31 present) respectively, were either transiently transfected (t) into Huh-Lunet cells or were established as stably replicating replicon cells (s) is provided. Either cells were dispensed into 384-well plates for EC50 assays. To perform the assay for genotype 3 and 4, NS5A chimeric genotype 1b Con1 replicons that encodes a Pi-RLuc reporter and either genotype 3a S52 strain NS5A gene or genotype 4a ED43 strain NS5A gene respectively, were transiently transfected (t) into Huh-Lunet cells, which were subsequently dispensed into 384-well plates. Compounds were dissolved in DMSO at a concentration of 10 mM and diluted in DMSO either manually or using an automated pipeting instrument. Serially 3-fold diluted compounds were either manually mixed with cell culture media and added to the seeded cells or directly added to the cells using an automated instrument. DMSO was used as a negative (solvent; no inhibition) control, and the protease inhibitor ITMN-191 was included at a concentration>100×EC50 as a positive control. 72 hours later, cells were lysed and Renilla luciferase activity quantified as recommended by the manufacturer (Promega-Madison, Wis.). Non-linear regression was performed to calculate EC50 values.
In general terms: A replicon is a self-replicating genome or part of one, used to study replication in cells.

Assay [2] concerns NS5A chimeric genotype 1b Con1 replicon with genotype 4a ED43 strain NS5A gene. Nature of the assay: Replicon assay, genotype 4a NS5A chimera. The assay is classed as cell-based, HCV. The settings on record: Hepatitis C virus.
The test system of assay [3] is stable HCV 1b RLuc replicon cells (dicistronic genotype 1b Con1 replicon). The assay can be described thus: Renilla luciferase HCV replicon reporter assay, genotype 1b. The assay is classed as cell-based. The settings on record: Hepatitis C virus, 72 h, stable 1b Con1 RLuc replicon cells, 72 hours; read-out: 1b. As to the method: as §1, §2
The test system of assay [4] is NS5A chimeric genotype 1b Con1 replicon with genotype 3a S52 strain NS5A gene. The assay can be described thus: Replicon assay, genotype 3a NS5A chimera. The assay is classed as cell-based, HCV. The settings on record: Hepatitis C virus.
The test system of assay [5] is stable HCV 1a RLuc replicon cells (dicistronic genotype 1a H77 replicon). The assay can be described thus: Renilla luciferase HCV replicon reporter assay, genotype 1a. The assay is classed as cell-based. Particulars: Hepatitis C virus, 72 h, stable 1a H77 RLuc replicon cells. As to the method:
as §1, §2

Assay [6] concerns stable HCV 2a JFH-1 Rluc replicon cells (L31 present in NS5A). Nature of the assay: Renilla luciferase HCV replicon reporter assay, genotype 2a JFH-1. The assay is classed as cell-based. Particulars: Hepatitis C virus. As to the method:
as §1, §2

The test system of assay [7] is NS5A chimeric genotype 2a JFH-1 replicon with genotype 2a J6 strain NS5A gene (M31 present). Nature of the assay: Replicon assay, genotype 2a J6 NS5A chimera. The assay is classed as cell-based, HCV. The settings on record: Hepatitis C virus, read-out: 2a J6 (t) (nM), genotype 2a J6 NS5A chimeric replicon (M31), transiently transfected (t) into Huh-Lunet cells. The procedure:
as §1, §2

The mark [8] stands for this setting: 2BS, read-out: 2b (s), stably replicating replicon cells (s), activity range.
Setting [9] is: read-out: 2b (s) (nM), genotype 2b MD2b-1 NS5A chimeric replicon (M31), stably replicating replicon cells (s).
[10] abbreviates: read-out: 4a (s) (nM), genotype 4a NS5A chimeric replicon, stable replicon cells (s).
[11] abbreviates: read-out: 4a (s), (s), activity range.
[12] abbreviates: read-out: 3a (s) (nM), genotype 3a NS5A chimeric replicon, stable replicon cells (s).
Where [13] appears, read: read-out: 3a (s), (s), activity range.
Where [14] appears, read: read-out: 2a JFH (nM), genotype 2a JFH-1 replicon (L31 in NS5A), stable cells.
[15] abbreviates: read-out: 2a JFH, stable 2a JFH-1 Rluc replicon cells, L31 in NS5A, activity range.

Consider seven molecules from patent US10800789B2, “Antiviral compounds” (Gilead Pharmasset LLC, priority 2012, dated 2020).

SMILES strings stand for the structures. Where two headings read alike, the source gives them in different places.

Consider `CC[C@H]1CC[C@@H](c2ncc(-c3ccc4c(c3)COc3cc5c(ccc6nc([C@@H]7CC[C@H](C)N7C(=O)[C@@H](NC(=O)OC)[C@@H](C)OC)[nH]c65)cc3-4)[nH]2)N1C(=O)[C@@H](NC(=O)OC)C(C)C` [EQ, methyl{(2S,3R)-1-[(2S,5S)-2-(9-{2-[(2S,5S)-5-ethyl-1-{(2S)-2-[(methoxycarbonyl)amino]-3-methylbutanoyl}pyrrolidin-2-yl]-1H-imidazol-5-yl}-1,11-dihydroisochromeno[4′,3′:6,7]naphtho[1,2-d]imidazol-2-yl)-5-methylpyrrolidin-1-yl]-3-methoxy-1-oxobutan-2-yl}carbamate], for which the EC50 is 0.1 to 0.999 nM in assay [1] (setting [8]); 0.279 nM in assay [1] (setting [9]); 0.025 nM in assay [2] (setting [10]); less than 0.1 nM in assay [2] (setting [11]); 0.036 nM in assay [3]; 0.475 nM in assay [4] (setting [12]). Also, the EC50 in assay [4] (setting [13]) was 0.1 to 0.999 nM; in assay [5], 0.034 nM; in assay [5] (activity range), less than 0.1 nM; in assay [6] (setting [14]), 0.022 nM; in assay [6] (setting [15]) it was less than 0.1 nM.

On to `CC[C@H]1CC[C@@H](c2ncc(-c3ccc4c(c3)COc3cc5c(ccc6nc([C@@H]7C[C@H](COC)CN7C(=O)[C@@H](NC(=O)OC)C(C)C)[nH]c65)cc3-4)[nH]2)N1C(=O)[C@@H](NC(=O)OC)C(C)C` [ER, Methyl {(2S)-1-[(2S,4S)-2-(9-{2-[(2S,5S)-5-ethyl-1-{(2S)-2-[(methoxycarbonyl)amino]-3-methylbutanoyl}pyrrolidin-2-yl]-1H-imidazol-5-yl}-1,11-dihydroisochromeno[4′,3′:6,7]naphtho[1,2-d]imidazol-2-yl)-4-(methoxymethyl)pyrrolidin-1-yl]-3-methyl-1-oxobutan-2-yl}carbamate], for which the EC50 is 0.1 to 0.999 nM in assay [1] (setting [8]); 0.852 nM in assay [1] (setting [9]); 0.011 nM in assay [2] (setting [10]); less than 0.1 nM in assay [2] (setting [11]); 0.02 nM in assay [3]; 2.8 nM in assay [4] (setting [12]). The EC50 is 1 to 44 nM in assay [4] (setting [13]); 0.016 nM in assay [5]; less than 0.1 nM in assay [5] (activity range); 0.021 nM in assay [6] (setting [14]); less than 0.1 nM in assay [6] (setting [15]).

Consider `COC(=O)N[C@H](C(=O)N1C[C@@H](C)C[C@H]1c1nc2ccc3cc4c(cc3c2[nH]1)OCc1cc(-c2cnc([C@@H]3CC[C@H](C)N3C(=O)[C@@H](NC(=O)OC)C3CCOCC3)[nH]2)ccc1-4)C(C)C` [FP, Methyl [(2S)-1-{(2S,4S)-2-[9-(2-{(2S,5S)-1-[(2S)-2-[(methoxycarbonyl)amino]-2-(tetrahydro-2H-pyran-4-yl)acetyl]-5-methylpyrrolidin-2-yl}-1H-imidazol-5-yl)-1,11-dihydroisochromeno[4′,3′:6,7]naphtho[1,2-d]imidazol-2-yl]-4-methylpyrrolidin-1-yl}-3-methyl-1-oxobutan-2-yl]carbamate], for which the EC50 in assay [1] (setting [8]) is less than 0.1 nM; in assay [1] (setting [9]), 0.085 nM; in assay [2] (setting [10]) it was 0.017 nM; in assay [2] (setting [11]), less than 0.1 nM; in assay [3], 0.024 nM; in assay [4] (setting [12]), 0.052 nM. Besides, the EC50 in assay [4] (setting [13]) is less than 0.1 nM; in assay [5], 0.016 nM; in assay [5] (activity range), less than 0.1 nM; in assay [6] (setting [14]), 0.016 nM; in assay [6] (setting [15]) it was less than 0.1 nM.

On to `CC[C@H](C)[C@H](NC(=O)OC)C(=O)N1[C@@H](C)CC[C@H]1c1nc2ccc3cc4c(cc3c2[nH]1)OCc1cc(-c2cnc([C@@H]3C[C@H](COC)CN3C(=O)[C@@H](NC(=O)OC)C(C)C)[nH]2)ccc1-4` [FS, Methyl {(2S,3S)-1-[(2S,5S)-2-(9-{2-[(2S,4S)-1-{(2S)-2-[(methoxycarbonyl)amino]-3-methylbutanoyl}-4-(methoxymethyl)pyrrolidin-2-yl]-1H-imidazol-5-yl}-1,11-dihydroisochromeno[4′,3′:6,7]naphtho[1,2-d]imidazol-2-yl)-5-methylpyrrolidin-1-yl]-3-methyl-1-oxopentan-2-yl}carbamate], for which the EC50 is 0.1 to 0.999 nM in assay [1] (setting [8]); 0.784 nM in assay [1] (setting [9]); 0.017 nM in assay [2] (setting [10]); less than 0.1 nM in assay [2] (setting [11]); 0.025 nM in assay [3]; 0.411 nM in assay [4] (setting [12]). For the same molecule, the EC50 in assay [4] (setting [13]) is 0.1 to 0.999 nM; in assay [5] it was 0.024 nM; in assay [5] (activity range), less than 0.1 nM; in assay [6] (setting [14]), 0.025 nM; in assay [6] (setting [15]), less than 0.1 nM.

For the molecule `CC[C@H](C)[C@H](NC(=O)OC)C(=O)N1C[C@@H](COC)C[C@H]1c1ncc(-c2ccc3c(c2)COc2cc4c(ccc5nc([C@@H]6CC[C@H](C)N6C(=O)[C@@H](NC(=O)OC)[C@@H](C)OC)[nH]c54)cc2-3)[nH]1` [FT, Methyl {(2S,3S)-1-[(2S,4S)-2-(5-{2-[(2S,5S)-1-{(2S,3R)-3-methoxy-2-[(methoxycarbonyl)amino]butanoyl}-5-methylpyrrolidin-2-yl]-1,11-dihydroisochromeno[4′,3′:6,7]naphtho[1,2-d]imidazol-9-yl}-1H-imidazol-2-yl)-4-(methoxymethyl)pyrrolidin-1-yl]-3-methyl-1-oxopentan-2-yl}carbamate], the EC50 in assay [1] (setting [8]) is 0.1 to 0.999 nM; in assay [1] (setting [9]), 0.395 nM; in assay [2] (setting [10]), 0.028 nM; in assay [2] (setting [11]), less than 0.1 nM; in assay [3], 0.045 nM; in assay [4] (setting [12]), 0.283 nM. The EC50 is 0.1 to 0.999 nM in assay [4] (setting [13]); 0.04 nM in assay [5]; less than 0.1 nM in assay [5] (activity range); 0.029 nM in assay [6] (setting [14]); less than 0.1 nM in assay [6] (setting [15]).

Consider `COC(=O)N[C@H](C(=O)N1C[C@@H](C)C[C@H]1c1ncc(-c2ccc3c(c2)COc2cc4c(ccc5nc([C@@H]6CC[C@H](C)N6C(=O)[C@@H](NC(=O)OC)[C@@H](C)OC)[nH]c54)cc2-3)[nH]1)C(C)C` [GH, Methyl {(2S)-1-[(2S,4S)-2-(5-{2-[(2S,5S)-1-{(2S,3R)-3-methoxy-2-[(methoxycarbonyl)amino]butanoyl}-5-methylpyrrolidin-2-yl]-1,11-dihydroisochromeno[4′,3′:6,7]naphtho[1,2-d]imidazol-9-yl}-1H-imidazol-2-yl)-4-methylpyrrolidin-1-yl]-3-methyl-1-oxobutan-2-yl}carbamate], for which the EC50 in assay [1] (setting [8]) is 0.1 to 0.999 nM; in assay [1] (setting [9]), 0.247 nM; in assay [3], 0.027 nM; in assay [4] (setting [12]), 0.07 nM; in assay [4] (setting [13]), less than 0.1 nM; in assay [5], 0.02 nM. In addition, the EC50 was less than 0.1 nM in assay [5] (activity range), 0.011 nM in assay [6] (setting [14]) and less than 0.1 nM in assay [6] (setting [15]).

`CC[C@H](C)[C@H](NC(=O)OC)C(=O)N1CCC[C@H]1c1ncc(-c2ccc3c(c2)COc2cc4c(ccc5nc([C@@H]6CCCN6C(=O)[C@@H](NC(=O)OC)[C@@H](C)CC)[nH]c54)cc2-3)[nH]1` [HH]: the EC50 stood at 2.25 nM in assay [1] (setting [9]); 0.011 nM in assay [2] (setting [10]); 0.06 nM in assay [4] (setting [12]); 3 nM in assay [7]; 0.012 nM in assay [6] (setting [14]).
